A melting point compilation (Tetko et al.; mined from patent text by program, amines drawn as free bases though some values may be those of a salt)

melting point [°C] | SMILES
158 to 159 | C=CCc1c(O)cc(O)c(C(C)=O)c1O
115 to 117 | O=P(O)(O)CCCCCCCCCCCC(F)(F)C(F)(F)C(F)(F)C(F)(F)C(F)(F)C(F)(F)C(F)(F)C(F)(F)F
88 to 89 | N#Cc1cc(Br)c(OC(=O)OCOC(=O)COc2ccc(Cl)cc2Cl)c(Br)c1
102 to 103 | N#CCc1cn(-c2ccccc2)nc1OCc1ccccc1
78 | COc1cc(-c2nc3ccccc3n2Cc2cccc(C)c2)cc(OC)c1OC
176 to 177 | CSCC1(c2onc(-c3ccc(O)cc3)c2-c2ccccc2)CC1
214 | Cc1[nH]c(-c2ccccc2)nc1C(O)C(C)C (centres undefined)
126 to 127 | Cc1ccc(Oc2cnc(C#N)c(C#N)n2)cc1
75 | COC(=O)c1ncncc1OC
118 to 120 | CCOC(=O)C(=O)Nc1sc(C(=O)OCC)c(C)c1[N+](=O)[O-]
56 to 59 | C#CCCCON1Sc2cccc3cccc1c23
252 to 254 | CNc1nc(N)nc2c1nnn2Cc1ccccc1F
77 | COc1ccc(Nc2nc(NCCN)nc(NC3CCCCCC3)n2)cc1Cl
118 to 120 | COc1ccc(COc2ccc(N)cc2)cc1
113 to 115 | CCCS(=O)(=O)c1cc(C(C)C)c(C#N)cc1C(C)C
205 to 206 | COc1ccc2cccc3c2c1C(=O)N(O)C3=O
72 to 73 | BrCCCCCCOc1ccc(OCc2ccccc2)cc1
148 to 150 | CSc1c(C)[nH]c2cccc([N+](=O)[O-])c12
173 to 175 | OC(c1c(Br)ccc2c1OCO2)c1cccc2cnccc12 (centres undefined)
100 to 102 | O=C(C=Cc1cccnc1)NCCCOC1CCN(Cc2ccccc2)CC1
135 to 136 | CC(=O)N(O)Cc1ccc(OCCN(C)c2nc3ccccc3o2)cc1
350 to 355 | Oc1cc(O)c2ccccc2n1
228 to 230 | Cc1cc(C)nc(-n2nc(S(=O)(=O)Nc3c(F)cccc3F)nc2C)n1
154 | CNC[C@@H]1c2ccccc2Oc2ccc(Cl)cc2[C@H]1C(=O)O (relative stereo)

melting point [°C] | SMILES
184 to 190 | O=C(Nc1ccccc1Oc1ccc(C(=O)O)c(C(=O)O)c1)c1cccc([N+](=O)[O-])c1
246 to 248 | CCNc1ccc2c(c1)CN(c1cc3c(cc1F)c(=O)c(C(=O)O)cn3CC)C2
130 | CC(C)(C)OC(=O)C[C@H](NC(=O)c1ccc(CCC(=O)NC2=NCCCN2)s1)c1ccc2c(c1)OCO2
138 to 139 | CC[C@H](N)C(=O)N1c2ccccc2C[C@H]1C(=O)NC
142 | COC(=O)C(C)Oc1ccc(Oc2ccc(C(F)(F)F)cc2)cc1 (centres undefined)
123 to 125 | CO/N=C1\CCCC[C@@H]1NC(=O)c1cc(-c2ccc(Cl)cc2)c(O[C@@H](C)C(F)(F)F)cn1
75 to 77 | CCN(CC)C(=O)n1ccc(S(=O)(=O)c2ccc(Br)c(C)c2)n1
105 to 110 | COc1cccc2cc(CNCCNC(=O)C34CC5CC(CC(C5)C3)C4)oc12
116 to 118 | CC(C)(C=O)C(=O)C(C)(Cc1ccc(C(C)(C)C)cc1)C(=O)O (centres undefined)
112 to 115 | Oc1c(C(O)(C(F)(F)F)C(F)(F)F)cc(Br)c2ccccc12
173 to 174 | Cc1sc(-c2ccco2)nc1O
128 | COc1ccc(-n2nnnc2CC(=O)C(F)(F)F)cc1C=O
55 to 56 | CCOC(=O)NC(C)COc1ccc(Oc2ccc(F)cc2)cc1 (centres undefined)
113 to 114 | O=C(O)CCOc1cccc2c1Cc1sc(SCCC(c3ccccc3)c3ccccc3)nc1-2
> 300 | Cc1ccc(C(=O)c2cccc(S(=O)(=O)O)n2)cc1
97 | COCc1nn(-c2cccc(NC(C)=O)c2)c(=O)n(Cc2ccc(Cl)cc2)c1=O
66 to 76 | NC(=O)CCCN(Cc1ccc(Cl)cc1)Cc1ccc(Cl)cc1
234 to 235 | NC(=O)c1cc2ccccc2cc1N
175 to 176 | O=C(CCc1cc(Br)c(OC(=O)c2c3ccccc3nc3ccccc23)c(Br)c1)ON1C(=O)CCC1=O
196 to 198 | Cc1c2n(c(=O)[nH]c1=O)CCCS2
111 to 112 | CC(OCc1ccc2ccccc2c1)(C(N)=O)C(F)(F)F (centres undefined)
64 to 65 | CC(=O)COc1c([N+](=O)[O-])ccc(F)c1C(C)=O
84 to 101 | COc1cc2c(cc1Nc1ncc(Cl)c(Nc3ccccc3S(=O)(=O)N(C)C)n1)CCN(CCS(C)(=O)=O)CC2
234 to 236 | O=C(O)COC1=C(Cc2ccc3c(Br)cccc3c2)C(=O)CCC1

melting point [°C] | SMILES
150 to 152 | Cc1c(Oc2nccs2)ccc(C(=O)O)c1Cl
166 to 167 | CC(C)Cc1nn(C)c(=O)c2cn(Cc3cccc4ccccc34)nc12
160 to 161 | CN(c1cccc2cc(-c3ncc(CCC(=O)N4CCOCC4)s3)[nH]c12)S(=O)(=O)c1cccs1
87 to 90 | O=C1SC[C@@H](CO)N1Cc1ccccc1
73 to 74 | CCOC(=O)C(Cc1ccc(Cl)c(OC(F)(F)C(F)F)c1)C(=O)c1ccc(F)cc1 (centres undefined)
128 to 131 | CC(=O)Oc1ccc(-n2cc(C(=O)O)c(=O)cc2-c2ccc(N(C)C)cc2)cc1
99 to 100 | CC(C)(C)OC(=O)N1CCN(Cc2ccc([N+](=O)[O-])cc2)CC1
220 to 222 | CC(C)(NC(=O)C(O)C(N)Cc1ccc(S(C)(=O)=O)cc1)C(=O)O (centres undefined)
112 to 114 | Cc1cn(C(C)C(=O)N(C)c2ccccc2)nc1-c1ccccc1 (centres undefined)
123 to 125 | Cc1cccnc1CCOc1ccc(NC(=O)N(C)C)cc1
172 to 173 | CCCNC(=S)NCCCn1c(CCOC)nc2c(N)nc3ccccc3c21
102 | CC(C)C1(C(=O)O)CCCCC1
109 to 111 | Cc1[nH]c2ccc(CCN(C)C3CCOCC3)cc2c1C(=O)OCc1ccccc1
148 to 150 | COC(=O)C1=C(C)NC(C)=C(C(=O)OCC2CCCO2)C1c1ccc(Cl)c([N+](=O)[O-])c1 (centres undefined)
251 to 253 | COc1cc2c(c3c1OC(C)(C)C3)C(c1ccn(CC(=O)Nc3cccnc3)c(=O)c1)=NC(C)(C)C2
99 | CCOC(=O)C(C#N)=Cc1cc(Oc2c(Cl)cc(C(F)(F)F)cc2Cl)ccc1[N+](=O)[O-]
183 to 184 | N#CCCNC(=S)C1CC(CF)(CF)Oc2ccc([N+](=O)[O-])cc21 (centres undefined)
162 to 167 | CC(=O)c1ccc(S(=O)(=O)NCc2ccncc2)cc1
195 to 197 | CCn1c2ccccc2c2cc(NC(C)=O)ccc21
180 | Cc1nc(N(C)N)[nH]c(=O)c1CCO
59 to 60 | CCOC(=O)CC(=O)c1ccc(OCc2ccccc2)cc1C
65 to 67 | CCCCCCCCCCCCCCCCCCOCC(CO)Oc1nccs1 (centres undefined)
234 to 237 | C=Cc1cc(C(F)(F)F)ccc1-c1cc(Oc2cccc3sc(NC(C)=O)nc23)ncn1
66 to 72 | COC(=O)C(C)(C)c1ccc(OCCNC(=O)C2Cc3ccccc3N2S(=O)(=O)c2ccc(-c3cc(C(F)(F)F)ccc3Cl)cc2)cc1 (centres undefined)

melting point [°C] | SMILES
216 to 218 | CC(=O)Nc1c(C)nc(N)c(C(=O)NNS(=O)(=O)c2ccccc2)c1C
72 to 73 | CC(C)CCCC(C)CC(=O)Oc1ccc(-c2ccc(OC(=O)CC(C)CCCC(C)C)cc2)cc1 (centres undefined)
86 to 88 | CCCCc1ncc(CO)n1Cc1ccccc1Cl
98 to 100 | C=C=CS(=O)(=O)c1ncn(C(=O)N(CC)CC)n1
245 to 247 | O=C(Nc1ccc2[nH]c(=O)sc2c1)C(=O)N1CCC(Oc2ccc(Cl)cc2)CC1
193 to 198 | CNCCCc1c[nH]c(-c2ccc(F)cc2)c1-c1ccncc1
98 | Cc1nc(Cl)c(C#N)c2c1CCCC2
152 to 154 | CC1(C(O)C(Cc2ccc(Cl)cc2)n2cncn2)COCOC1 (centres undefined)
170 | COc1ccc2c(c1)ncc1c(=O)n(-c3ccccc3)oc12
119 to 120 | CCc1c(C(=O)c2cc(C)cc(C)c2)n(C/C=C/CN=[N+]=[N-])c(=O)[nH]c1=O
66 to 68 | COC(=O)CC(C#Cc1cccc(-c2noc(C)n2)c1)c1ccc(OC)c(OC2CCCC2)c1 (racemic)
90 to 94 | CCCCOc1ccc(CC(=O)N[C@@H](C(=O)O)[C@@H](C)O)cc1
198 to 200 | O=[N+]([O-])c1cnc2cc(Cl)ccc2c1Nc1ccc(F)cc1
114 to 116 | C[C@H]1CCCC(C)(C)[C@@H]1C(=O)c1ccoc1
192 | CS(=O)(=O)N1CCN([C@@H](CNC(=O)c2ccc(OCc3ccc(C(F)(F)F)cc3)cc2)C(=O)NO)CC1
200 to 201 | O=Cc1ncn2cc(Br)sc12
101 to 104 | CC(=O)c1ccc(C(=O)N(C)C)o1
54 to 57 | CN(C)S(=O)(=O)OCCOc1ccc(Cl)cc1
160 to 162 | CC=CCN(C)c1ncnc2c1ncn2C1OC(CO)C(O)C1O (centres undefined)
143 to 145 | NN1CCC2(CC1)OC(c1ccccc1)c1ccccc12 (centres undefined)
55 to 56 | COc1ccc(-c2oncc2CCCO)cc1OC
95 | N#Cc1cccc(CCC(=O)O)c1
135 to 136 | COc1ccc2ccc3ccc(C=O)c4ccc1c2c34
228 to 230 | O=C1N(Cc2ccccn2)c2cccc(-c3cnc4ccccc4c3)c2C12COc1cc3c(cc12)OCCO3 (centres undefined)

SMILES | melting point [°C]
C1=C(c2ccc(-n3ccnc3)cc2)CCNC1 | 150 to 153
CN1C2CCC1CN(c1ccc(Br)nn1)C2 | 118 to 120
CCn1c(C)c(C(=O)c2ccc(N)cc2C(=O)O)c2ccccc21 | 187 to 189
OC1(CN2CC2)COc2ccccc2OC1 | 98 to 99.5
NP(N)(=O)OCCCCl | 111 to 112
CC12CC(=O)C3C(CCC4CC(O)CCC43C)C1CCC2C(=O)CCCl (centres undefined) | 110 to 112
Cc1c(N=C2NCCN2)cccc1N(C)C | 116 to 118
C=C(C)CN1C(=O)CC(=O)N(c2ccccc2)c2cc(Cl)ccc21 | 149 to 151
